Measured values published in BindingDB's records for patent US11529321 (Wigen Biomedicine Technology (Shanghai), 2022).

Target: Microtubule-associated proteins 1A/1B light chain 3B (Homo sapiens, UniProt Q9GZQ8)
Assay: Molecular Level Experiments of Targeting LC3B

Structure (SMILES)	IC50
CCCCCC(=O)N1CCN(CCNC=C2C(=O)CC(c3ccco3)CC2=O)CC1 (stereo not drawn) [US11529321, Compound 58]	in the range around 9 µM
O=C1CC(c2ccccc2)CC(=O)C1=CNCCN1CCN(C(=S)Nc2cccc(Cl)c2)CC1 (stereo not drawn) [US11529321, Compound 31]	in the range around 9 µM
C=CCNC(=S)N1CCN(CCNC=C2C(=O)CC(c3ccco3)CC2=O)CC1 (stereo not drawn) [US11529321, Compound 39]	in the range around 9 µM
